Measured values as given in patent US7488425B2, “Method for photolyzing organic matter and method for treating wastewater” (Nisshinbo Industries, Inc., priority 2004, dated 2009).
Structures can show the parent of a compound that is named as a salt.

Columns and labels:
[1] = Mixing with simple distilled water (phase separation, hydrophobicity); type: physicochemical
Description: As used herein, “hydrophobic” refers to the property of, after being mixed or stirred with water, separating again into two phases on standing. While it suffices for the hydrophobic ionic liquid to have this quality, when the above photolytic process is employed for the subsequently described wastewater treatment or the like, a hydrophobic ionic liquid with a lower solubility in water will result in a smaller loss of ionic liquid during wastewater treatment and enable treated water having a higher degree of cleanliness to be obtained.
(§1) The solubility in simple distilled water (25° C.) was about 1.5 wt %.

[2] = Solubility of the ionic liquid in simple distilled water; type: physicochemical; conditions: 25° C.
Method: as §1

Row | behaviour when mixed with simple distilled water [1] | solubility in simple distilled water [2] | Compound
1 | forms a homogeneous phase | – | CCn1cc[n+](C)c1.O=S(=O)([O-])C(F)(F)F [EMIMTfO, 1-ethyl-3-methylimidazolium trifluoromethanesulfonate, reference compound]
2 | separated into two phases | about 1.5 wt % | CC[N+](C)(CC)CCOC [ionic liquid (2), Bis(trifluoromethanesulfonyl)imide Salt of N,N-Diethyl-N-methyl-N-(2-methoxyethyl)ammonium]
